Experimental data from patent publication US11806359B2 (priority 2020, dated 2023).

Key:
[1] = system: HEP C; conditions: cited from earlier work
[2] = system: HCV H strain NS5B; conditions: cited from earlier work
[3] = system: HIV-1; conditions: cited from earlier work
[4] = system: SARS-CoV-2; format: cell-based; conditions: FIG. 32
[5] = system: adenovirus; test: Antiviral activity against adenovirus; format: cell-based
[6] = system: Dengue virus; conditions: Cheung et al. 2014; cited from earlier work
[7] = system: HEP B; conditions: cited from earlier work
[8] = system: HSV-2; conditions: cited from earlier work
[9] = system: ADV-8; conditions: cited from earlier work
[10] = system: ADV-11; conditions: cited from earlier work
[11] = system: HSV-1; conditions: cited from earlier work
[12] = system: ENTV CVB1; conditions: cited from earlier work
[13] = system: ENTV EV71; conditions: cited from earlier work
[14] = system: ADV-3; conditions: cited from earlier work

Structure (SMILES): CC1(C)CC[C@]2(C(=O)O)CC[C@]3(C)C(=CC[C@@H]4[C@@]5(C)CC[C@H](O)C(C)(C)[C@@H]5CC[C@]43C)[C@@H]2C1 [Oleanolic acid]
- anti-viral activity against HEP C [1]: some anti-viral activity
- anti-viral activity against HCV H strain NS5B [2]: some anti-viral activity
- anti-viral activity against HIV-1 [3]: some anti-viral activity

Structure (SMILES): C[C@H]1O[C@@H](O[C@H]2[C@@H](O)C[C@H](O[C@H]3[C@@H](O)C[C@H](O[C@H]4CC[C@@]5(C)[C@H](CC[C@@H]6[C@@H]5C[C@@H](O)[C@]5(C)[C@@H](C7=CC(=O)OC7)CC[C@]65O)C4)O[C@@H]3C)O[C@@H]2C)C[C@H](O)[C@@H]1O [digoxin, reference compound]
- inhibition of viral replication [4]: efficacy of digoxin against the virus
- activity against adenovirus [5]: inactive

Structure (SMILES): CC(=O)O[C@H]1C[C@H](O[C@H]2[C@@H](O)C[C@H](O[C@H]3[C@@H](O)C[C@H](O[C@H]4CC[C@@]5(C)[C@H](CC[C@@H]6[C@@H]5C[C@@H](O)[C@]5(C)[C@@H](C7=CC(=O)OC7)CC[C@]65O)C4)O[C@@H]3C)O[C@@H]2C)O[C@H](C)[C@H]1O[C@@H]1O[C@H](CO)[C@@H](O)[C@H](O)[C@H]1O [lanatoside C]
- antiviral activity against Dengue virus [6]: demonstrates antiviral activity against Dengue virus

Structure (SMILES): C[C@H]1[C@H](C)CC[C@]2(C(=O)O)CC[C@]3(C)C(=CC[C@@H]4[C@@]5(C)CC[C@H](O)C(C)(C)[C@@H]5CC[C@]43C)[C@H]12 [Ursolic acid]
- anti-viral activity against HEP B [7]: some anti-viral activity
- anti-viral activity against HSV-2 [8]: some anti-viral activity
- anti-viral activity against ADV-8 [9]: some anti-viral activity
- anti-viral activity against ADV-11 [10]: some anti-viral activity
- anti-viral activity against HSV-1 [11]: some anti-viral activity
- anti-viral activity against ENTV CVB1 [12]: some anti-viral activity
- anti-viral activity against ENTV EV71 [13]: some anti-viral activity
- anti-viral activity against HEP C [1]: some anti-viral activity
- anti-viral activity against HCV H strain NS5B [2]: some anti-viral activity
- anti-viral activity against ADV-3 [14]: some anti-viral activity
- anti-viral activity against HIV-1 [3]: some anti-viral activity
